Results reported in BindingDB's records for doi:10.1021/acs.jmedchem.0c00377 (Huazhong University of Science and Technology, 2020).
pKd: −log10 of the molar value.

Tests used:
[1] = Binding affinity to recombinant TNFalpha (unknown origin) expressed in Escherichia coli BL21 (DE3) assessed as Kd for TNF-alpha-TNFR1 binding at 10 uM pe-incubated for 15 mins before TNFR1 addition and measured after 15 mins by MST assay (Rvb = 0.23 uM)
[2] = Binding affinity to recombinant TNFalpha (unknown origin) expressed in Escherichia coli BL21 (DE3) assessed as Kd for TNF-alpha-TNFR1 binding at 100 uM pe-incubated for 15 mins before TNFR1 addition and measured after 15 mins by MST assay (Rvb = 0.23 uM)

- pKd [1]: 5.37
- pKd [2]: 4.71
Structure (SMILES): O=C1C[C@H](Nc2ncnc3[nH]cnc23)CN1Cc1ccccc1
